Reference: paper PMC9354954, “Assessing Bioavailability and Bioactivity of 4-Hydroxythiazolidine-2-Thiones, Newly Discovered Glucosinolate Degradation Products Formed During Domestic Boiling of Cabbage” (Frontiers in Nutrition, 2022)
Read-outs that look alike come from different tables or passages of the source.

Experiments:
Caco-2 cells = test: Cytotoxicity, neutral red uptake assay; format: cell-based, human; details: Caco-2, neutral red uptake assay, up to 100 μM, 24 h
Protocol: (§1) To determine the cytotoxicity of allyl HTT and 4-MSOB HTT, HepG2 and Caco-2 cells were seeded in a 96-well TC-plate (standard F, sterile, from Sarsted, Nümbrecht, Germany) using a seeding density of 20,000 cells/well. After 24 h, the medium was exchanged to 200 μL pure medium or 200 μL medium containing allyl HTT or 4-MSOB HTT with concentrations in the range of 0.1–100 μM. The cells were treated for 24 h under cell culture conditions (prepared for three biological replicates, every 3 technical replicates). Cell viability was determined using the MTT assay and the neutral red uptake assay based on Schröter et al. ([27]). In the case of MTT assay, after 24 h of HTT treatment, 20 μL of MTT solution (75 mg MTT in 15 mL PBS) were added, and cells were incubated for 60 min under cell culture conditions. Afterward, the supernatant was removed and 100 μL of lysis buffer (5% formic acid in isopropanol) was added and the plate was shaken for 10 min at 300 rpm before measuring the absorption at 550 ± 5 nm (reference 690 ± 5 nm) by a Tecan i-control Infinite M200 PRO plate reader (Crailsheim, Germany). In the case of the neutral red uptake assay, the supernatant was removed after 24 h HTT treatment, and 100 μL neutral red solution (40 mg neutral red in 10 mL PBS, freshly diluted 1:100 with medium and incubated for 24 h under cell culture conditions) was added. After incubation of neutral red solution for 2 h under cell culture conditions, the supernatant was removed, and cells were washed with 150 μL of PBS. After removing PBS, 150 μL desorb solution (49.5% water/49.5% ethanol/1% acetic acid) was added and the plate was shaken for 10 min at 300 rpm before measuring the absorption at 540 ± 5 nm by Tecan i-control Infinite M200 PRO plate reader. The mean ± SD is used for presenting the results of three technical replicates for each data point of the three biological replicates.

HepG2 cells = test: Cytotoxicity, neutral red uptake assay; format: cell-based, human; details: up to 100 μM, 24 h
Protocol: as §1

[1] = parameters: method as in PMID 35761548; details: recently calculated; cited from earlier work
[2] = Stability in an in vitro stomach model; format: in vitro ADME; details: 100 μM, 2 h, 37°C, stomach model solution pH 2
Protocol: To investigate the stability of the HTTs in the process of nutrient absorption, allyl HTT and 4-MSOB HTT were incubated (prepared as triplicates) at a concentration of 100 μM in an in vitro stomach model solution containing 2.9 g/L NaCl, 0.7 g/L KCl, 0.27 g/L KH2PO4, 0.78 g/L pepsin, and 3 g/L mucin-type II and adjusted with 1 M HCl to pH 2.0 based on literature ([25]). To simulate the stomach, samples were shaken slightly for 2 h at 200 rpm in a thermoshaker (MHR 23, Hettich Benelux B.V, Netherlands) at 37°C. Afterward, 500 μL of MeCN were added to 500 μL of stomach model solution to precipitate proteins and salts. The suspension was centrifuged for 3 min at 4,000 g and the supernatant was analyzed by HPLC-UV at a wavelength of 274 ± 2 nm. The stability of allyl HTT and 4-MSOB HTT in the stomach model was determined by the recovery compared to incubation in pure water at room temperature. […]

[3] = Determination of log P (octanol/water); format: physicochemical; details: room temperature; for concentration ratio in the octanol phase compared to the water phase: 18 h, triplicates; for logP at 18 h: octanol/water
Protocol: For the determination of log P of the HTTs, two solutions were used: water saturated with octanol and octanol saturated with water. […] The spiked octanol-water mixture was vortexed for 30 s and the mixture was incubated for 18 h at room temperature to obtain analyte equilibrium distribution. For determination of the log P-value, 50 μL of the water phase was taken and measured by HPLC-UV at 274 ± 2 nm with HPLC method 2 (see Section Stability of 4-Hydroxythiazolidine-2-Thiones in a Stomach Model) with an injection volume of 10 μL. The analyte concentration in the water phase was determined by using external calibration. The relative analyte content in the water phase was calculated by using the following equation:
analyte content in water phase in % =measured concentration in water phase of the mixture/2 · concentration in pure water reference ·100%
The relative analyte content in the octanol phase was calculated at 100% minus the relative analyte concentration in the water phase. The reported results are the mean ± SD of the three determined log P-values for the three repetitions.

[4] = inverse exposure: spiked in the lower compartment, 2 min
[5] = inverse exposure: spiked in the lower compartment, 1 h
[6] = inverse exposure: spiked in the lower compartment, 2 h
[7] = inverse exposure: spiked in the lower compartment, 24 h
[8] = spiked in the upper compartment, 2 min
[9] = spiked in the upper compartment, 1 h
[10] = spiked in the upper compartment, 2 h
[11] = spiked in the upper compartment, 24 h

| Compound | effect on cell viability compared to untreated cells (Caco-2 cells) | effect on cell viability compared to untreated cells (HepG2 cells) | calculated log P (partition coefficient in octanol/water) [1] | Concentration ratio of compartment non-spiked vs. spiked (Caco-2 cell layer; [4]) | Concentration ratio of compartment non-spiked vs. spiked (Caco-2 cell layer; [5]) | Concentration ratio of compartment non-spiked vs. spiked (Caco-2 cell layer; [6]) | Concentration ratio of compartment non-spiked vs. spiked (Caco-2 cell layer; [7]) | Concentration ratio of compartment non-spiked vs. spiked (Caco-2 cell layer; [8]) | Concentration ratio of compartment non-spiked vs. spiked (Caco-2 cell layer; [9]) | Concentration ratio of compartment non-spiked vs. spiked (Caco-2 cell layer; [10]) | Concentration ratio of compartment non-spiked vs. spiked (Caco-2 cell layer; [11]) | recovery compared to the pure water control reference [2] | concentration ratio in the octanol phase compared to the water phase [3] | logP at 18 h [3] | measured ratio for the higher uptake of allyl HTT compared to 4-MSOB HTT (Caco-2 cell layer; human, Caco-2, 100 μM) |
| --- | --- | --- | --- | --- | --- | --- | --- | --- | --- | --- | --- | --- | --- | --- | --- |
| C[S+]([O-])CCCCN1C(=S)SCC1O (centres unmarked) [4-MSOB HTT, 4-hydroxy-3-(4-(methylsulfinyl)butyl)thiazolidine-2-thione] | did not show any effect on cell viability | did not show any effect on cell viability | −1.12 | 0% | 5% | 11% | 99% | 0% | 1% | 3% | 54% | 98 ± 3% | 0.45 ± 0.04 | -0.35 ± 0.04 |  |
| C=CCN1C(=S)SCC1O (centres unmarked) [allyl HTT, 3-allyl-4-hydroxythiazolidine-2-thione] | did not show any effect on cell viability | did not show any effect on cell viability | 0.47 | 0% | 39% | 64% | 102% | 1% | 17% | 42% | 96% | 98 ± 2% | 8.1 ± 0.4 | 0.91 ± 0.02 | 10 fold |
